What was measured:
rats [1] = conditions: rat, in vivo
rats [2] = conditions: rat, in vivo; remark: listed apart in the source

In the case of `CC(C)C[C@H](CN)CC(=O)O` [Pregabalin], the “effect on left and right paw withdrawal latencies compared to vehicle control” value (rats [1]) is reported as “failed to have a significant effect” and the sedative clinical symptoms (rats [2]) is reported as “dose-dependant increase in the level of sedative clinical symptoms”.
